Source: patent US4737510A, “Bioactive metabolites from the caribbean sponge agelas coniferin” (priority 1986, dated 1988)
Values joined by “and” are separate entries in the source; they are usually repeats but may differ in a detail not shown here. Equal values may be shown once. Read-outs that look alike come from different tables or passages of the source.

Assays:
Escherichia coli = test: Disc diffusion antimicrobial assay, Escherichia coli; format: cell-based; conditions: for activity against Escherichia coli / zone of inhibition at 10 µg/disc: 10 μg/disk; for zone of inhibition at 10 µg/disc / zone of inhibition at 50 µg/disc / zone of inhibition at 100 µg/disc: Escherichia coli, 6.5 mm disc, read-out: diameter of the clear zone of inhibition; for zone of inhibition at 50 µg/disc: 50 μg/disk; for zone of inhibition at 100 µg/disc: 100 μg/disk
Bacillus subtilis = test: Disc diffusion antimicrobial assay, Bacillus subtilis; format: cell-based; conditions: for zone of inhibition at 10 µg/disc / zone of inhibition at 50 µg/disc / zone of inhibition at 100 µg/disc: Bacillus subtilis, 6.5 mm disc, read-out: diameter of the clear zone of inhibition; for zone of inhibition at 50 µg/disc: 50 μg/disk; for zone of inhibition at 100 µg/disc: 100 μg/disk
[1] = tested on: Herpes simplex virus, type I (HSV-1); test: microbe, parasite or virus in culture; format: cell-based; conditions: for zone of inhibition at 20 µg/disc / zone of inhibition at 50 µg/disc / zone of inhibition at 100 µg/disc / zone of inhibition at 200 µg/disc: Human alphaherpesvirus 1, in Primates
[2] = tested on: vesicular stomatitis virus (VSV); test: microbe, parasite or virus in culture; format: cell-based; conditions: Vesicular stomatitis virus, in Primates
[3] = tested on: Herpes Simplex Virus type 1 (HSV-1); test: Antiviral activity against HSV-1 determined by Dr. R. G. Hughes, Jr.;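 note: grades: +++ strong ++ moderate + light ± questionable - negative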; format: cell-based
[4] = tested on: Balanus amphitrite amphitrite; test: Barnacle settlement assay, inhibition; format: in vivo, Balanus amphitrite amphitrite (barnacle); conditions: Amphibalanus amphitrite
[5] = tested on: Monkey Kidney Cells (CV-1); test: Cytotoxicity to monkey kidney cells (CV-1) determined by Dr. R. G. Hughes, Jr.; conditions: 8 or less essentially indicates noncytotoxicity
E. coli strain BR339 = format: cell-based
[6] = tested on: Balanus amphitrite amphitrite; test: Barnacle settlement assay, facilitation; format: in vivo, Balanus amphitrite amphitrite (barnacle); conditions: Amphibalanus amphitrite
[7] = Stability of isolated solids; format: physicochemical; conditions: diacetate salts, amorphous solids
[8] = Water solubility (in words); format: physicochemical; conditions: relative to 1a-6a
[9] = read-out: antiviral activity, HSV-1, ++ scale
[10] = read-out: antiviral activity, HSV-1, zone diameter
[11] = read-out: antiviral activity, VSV, ++ scale
[12] = read-out: antiviral activity, VSV, zone diameter

SMILES	zone of inhibition at 10 µg/disc (Escherichia coli)	zone of inhibition at 50 µg/disc (Escherichia coli)	zone of inhibition at 100 µg/disc (Escherichia coli)	zone of inhibition at 10 µg/disc (Bacillus subtilis; 10 μg/disk)	zone of inhibition at 50 µg/disc (Bacillus subtilis)	zone of inhibition at 100 µg/disc (Bacillus subtilis)	zone of inhibition at 20 µg/disc [1, 9]	zone of inhibition at 50 µg/disc [1, 9]	zone of inhibition at 100 µg/disc [1, 9]	zone of inhibition at 200 µg/disc [1, 9]	zone of inhibition at 20 µg/disc [1, 10]	zone of inhibition at 100 µg/disc [1, 10]	zone of inhibition at 200 µg/disc [1, 10]	zone of inhibition at 20 µg/disc [2, 11]	zone of inhibition at 100 µg/disc [2, 11]	zone of inhibition at 200 µg/disc [2, 11]	zone of inhibition at 20 µg/disc [2, 12]	zone of inhibition at 100 µg/disc [2, 12]	HSV-1 activity ([3]; 25 μg/disk)	HSV-1 activity ([3]; 50 μg/disk)	other results
Nc1ncc(C2c3nc(N)[nH]c3CC(CNC(=O)c3cc(Br)c[nH]3)C2CNC(=O)c2cc(Br)c[nH]2)[nH]1 (centres unmarked) [Compound 4a, Ageliferin Acetate]	7 mm	9 mm	9 mm	10 mm	15 mm	16 mm	8 to 10 mm	11 to 15 mm	11 to 15 mm	> 16 mm	10 mm	14 mm	17 mm	< 7 mm	8 to 10 mm	11 to 15 mm	0 mm	10 mm	-	+	activity against Escherichia coli (Escherichia coli): active; zone of inhibition at 50 µg/disc [1, 10]: 13 mm; zone of inhibition at 50 µg/disc [2, 11]: 8 to 10 mm; zone of inhibition at 50 µg/disc [2, 12]: 8 mm; zone of inhibition at 200 µg/disc [2, 12]: 12 mm; HSV-1 activity ([3]; 100 μg/disk): ++; EC50 [4]: 21 mg/L; cytotoxicity, zone diameter ([5]; 25 μg/disk): 5 mm; cytotoxicity, zone diameter ([5]; 50 μg/disk): 5 mm; cytotoxicity, zone diameter ([5]; 100 μg/disk): 8 mm
Nc1ncc([C@@H]2[C@@H](CNC(=O)c3ccc[nH]3)[C@H](CNC(=O)c3cc(Br)c[nH]3)[C@H]2c2cnc(N)[nH]2)[nH]1 (relative stereo) [Compound 1a, Debromosceptrin Acetate]	0 mm	8 mm	11 mm	7 mm	11 mm	12 mm	11 to 15 mm	11 to 15 mm	11 to 15 mm	> 16 mm	11 mm	15 mm	18 mm	< 7 mm	7 mm	8 to 10 mm	0 mm	7 mm	±	±	growth inhibition of Bacillus subtilis (Bacillus subtilis; 10 μg/disk): most active; zone of inhibition at 50 µg/disc [1, 10]: 12 mm; zone of inhibition at 50 µg/disc [2, 11]: < 7 mm; zone of inhibition at 50 µg/disc [2, 12]: 0 mm; zone of inhibition at 200 µg/disc [2, 12]: 8 mm; HSV-1 activity ([3]; 100 μg/disk): ±; BIA activity (E. coli strain BR339): inducers; BIA activity, numerical color intensity scale 0-10 (E. coli strain BR339): 10 and 7 and 6; cytotoxicity, zone diameter ([5]; 25 μg/disk): 5 mm; cytotoxicity, zone diameter ([5]; 50 μg/disk): 5 mm; cytotoxicity, zone diameter ([5]; 100 μg/disk): 5 mm
NC1=NC(=O)C(C2C(CNC(=O)c3cc(Br)c[nH]3)C(CNC(=O)c3cc(Br)c[nH]3)C2c2cnc(N)[nH]2)N1 (centres unmarked) [Compound 8a, Oxysceptrin Acetate]	0 mm	8 mm	10 mm	0 mm	14 mm	15 mm	< 7 mm	8 to 10 mm	11 to 15 mm	11 to 15 mm	0 mm	11 mm	12 mm	< 7 mm	8 to 10 mm	8 to 10 mm	0 mm	8 mm	-	-	antiviral zone appearance [1]: diffuse zones; zone of inhibition at 50 µg/disc [2, 11]: < 7 mm; zone of inhibition at 50 µg/disc [2, 12]: 0 mm; HSV-1 activity ([3]; 100 μg/disk): +; BIA activity (E. coli strain BR339): inducers; BIA activity, numerical color intensity scale 0-10 (E. coli strain BR339): 9 and 6; BIA zone appearance (E. coli strain BR339): more diffuse zone; EC50 [6]: 0.017 mg/L; stability [7]: stable; water solubility [8]: more water soluble; cytotoxicity, zone diameter ([5]; 25 μg/disk): 5 mm; cytotoxicity, zone diameter ([5]; 50 μg/disk): 5 mm; cytotoxicity, zone diameter ([5]; 100 μg/disk): 6 mm
Nc1ncc([C@@H]2[C@@H](CNC(=O)c3cc(Br)c(Br)[nH]3)[C@H](CNC(=O)c3cc(Br)c(Br)[nH]3)[C@H]2c2cnc(N)[nH]2)[nH]1 (relative stereo) [Compound 3a, Dibromosceptrin Acetate]	0 mm	7 mm	7 mm	0 mm	10 mm	10 mm	8 to 10 mm	11 to 15 mm	11 to 15 mm	11 to 15 mm	9 mm	12 mm	14 mm	< 7 mm	8 to 10 mm	11 to 15 mm	0 mm	10 mm	-	++	zone of inhibition at 50 µg/disc [1, 10]: 11 mm; zone of inhibition at 200 µg/disc [2, 12]: 12 mm; HSV-1 activity ([3]; 100 μg/disk): +++; BIA activity (E. coli strain BR339): somewhat less active; BIA activity, numerical color intensity scale 0-10 (E. coli strain BR339): 3 and 2; cytotoxicity, zone diameter ([5]; 25 μg/disk): 5 mm; cytotoxicity, zone diameter ([5]; 50 μg/disk): 5 mm; cytotoxicity, zone diameter ([5]; 100 μg/disk): 7 mm
Nc1ncc(C2c3nc(N)[nH]c3CC(CNC(=O)c3cc(Br)c(Br)[nH]3)C2CNC(=O)c2cc(Br)c[nH]2)[nH]1 (centres unmarked) [Compound 5a, Bromoageliferin Acetate]	7 mm	8 mm	8 mm	10 mm	12 mm	12 mm	8 to 10 mm	11 to 15 mm	11 to 15 mm	11 to 15 mm	9 mm	11 mm	13 mm	< 7 mm	8 to 10 mm	8 to 10 mm	0 mm	10 mm	-	±	activity against Escherichia coli (Escherichia coli): active; zone of inhibition at 50 µg/disc [1, 10]: 11 mm; zone of inhibition at 50 µg/disc [2, 11]: < 7 mm; zone of inhibition at 50 µg/disc [2, 12]: 0 mm; zone of inhibition at 200 µg/disc [2, 12]: 10 mm; HSV-1 activity ([3]; 100 μg/disk): ++; BIA activity, numerical color intensity scale 0-10 (E. coli strain BR339): 3 and 2; cytotoxicity, zone diameter ([5]; 25 μg/disk): 5 mm; cytotoxicity, zone diameter ([5]; 50 μg/disk): 5 mm; cytotoxicity, zone diameter ([5]; 100 μg/disk): 7 mm
